Drawing on patent US20090030013A1, “SUBSTITUTED TETRAHYDRO-QUINOLINE-SULFONAMIDE COMPOUNDS, THEIR PREPARATION AND USE AS MEDICAMENTS” (LABORATORIES DEL DR. ESTEVE, S.A., priority 2007, published 2009), this text covers Ki and inhibition for one compound.

Counter-ions that a name gives are not always drawn.

In this experiment the target is T1, 5HT6-human recombinant receptor (Homo sapiens, UniProt P50406).
T1 construct: purchased Receptor Biology; host or cells: HEK-293 cell membranes
Nature of the experiment: Binding to serotonin receptor 5-HT6 ([3H]-LSD radioligand displacement). The conditions noted are these: [3H]-LSD 2.7 nM, HEK-293 cell membranes. Here is the method:
I) Binding to Serotonin Receptor 5-HT6
Cell membranes of HEK-293 cells expressing the 5HT6-human recombinant receptor were supplied by Receptor Biology. In said membranes the receptor concentration is 2.18 pmol/mg protein and the protein concentration is 9.17 mg/ml. The experimental protocol follows the method of B. L. Roth et al. [B. L. Roth, S. C. Craigo, M. S. Choudhary, A. Uluer, F. J. Monsma, Y. Shen, H. Y. Meltzer, D. R. Sibley: Binding of Typical and Atypical Antipsychotic Agents to 5-Hydroxytryptamine-6 and Hydroxytryptamine-7 Receptors. The Journal of Pharmacology and Experimental Therapeutics, 1994, 268, 1403] with the following slight changes. The respective part of the literature description is hereby incorporated by reference and forms part of the disclosure.
The commercial membrane is diluted (1:40 dilution) with the binding buffer: 50 mM Tris-HCl, 10 mM MgCl2, 0.5 mM EDTA (pH 7.4). The radioligand used is [^3H]-LSD at a concentration of 2.7 nM with a final volume of 200 μl. […] Non-specific binding is determined in the presence of 100 μM of serotonin. […] The inhibition constants (Ki, nM) were calculated by non-linear regression analysis using the program EBDA/LIGAND [Munson and Rodbard, Analytical Biochemistry, 1980, 107, 220]., the respective part of which is hereby incorporated by reference and forms part of the disclosure.
For orientation: Displacement assays read how much labelled ligand stays bound in the presence of the test substance.

T1 sequence (P50406 whole entry): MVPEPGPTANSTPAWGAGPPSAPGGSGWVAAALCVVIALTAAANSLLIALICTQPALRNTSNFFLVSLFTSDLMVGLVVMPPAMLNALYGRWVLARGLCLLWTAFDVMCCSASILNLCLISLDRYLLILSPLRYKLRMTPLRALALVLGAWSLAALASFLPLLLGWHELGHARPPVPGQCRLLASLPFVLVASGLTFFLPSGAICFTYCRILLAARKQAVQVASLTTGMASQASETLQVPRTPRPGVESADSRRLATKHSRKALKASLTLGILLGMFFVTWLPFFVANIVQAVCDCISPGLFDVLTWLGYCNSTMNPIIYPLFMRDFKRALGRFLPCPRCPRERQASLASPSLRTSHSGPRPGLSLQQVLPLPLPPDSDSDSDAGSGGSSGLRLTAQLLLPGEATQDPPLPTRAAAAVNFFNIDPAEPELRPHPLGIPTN

For the compound `CC1CCc2c(N3CCNCC3)cccc2N1S(=O)(=O)c1cccc2ccccc12` (stereo not drawn) [Compound 3, 1,2,3,4-tetrahydro-2-methyl-5-(piperazin-1-yl)-1-α-naphthylsulfonyl)quinoline trifluoroacetate], the Ki (tests in triplicate) came out at 31.4 ± 0.8 nM. Besides, the inhibition at 0.1 µM (compound at 10^−7 M) stood at 85.8%.

A word on the Ki: it is the equilibrium dissociation constant of an inhibitor or competing ligand from its target. Usually inhibition stands for the change of the read-out against control, counted positive when it falls.
